Laboratory results published in patent US5935960A, “Pro-drugs of 5-(2-(4-(1,2-benzisothiazol-3-yl)-1-piperazinyl)ethyl)-6-chloro-1,3-dihy dro-2H-indol-2-one” (Pfizer Inc., priority 1997, dated 1999).
Structures can show the parent of a compound that is named as a salt. Where two headings read alike, the source gives them in different places.

Tests used:
[1] = aqueous solubility; format: physicochemical; details: dihydrochloride salt, at about 25° C.
[2] = titration with 0.2032 Molar sodium hydroxide (pKa); format: physicochemical; details: dihydrochloride titrated with 0.2032 M NaOH
Experimental: The compound (5.0 g, 12.1 mmol) from Example 1 was suspended in 75 mL of THF at room temperature, and then 1.97 mL of concentrated hydrochloric acid was slowly added over 30 min affording a gummy solid. Water (5 mL) was added and the gummy solids were stirred for 6 hours to produce a finely divided solid which was granulated overnight. The mixture was filtered and the filter cake was washed with THF (10 mL). The product was dried in vacuo at 25° C. overnight under a nitrogen bleed to give 5.87 g of the title dihydrochloride compound as a tan solid (mp=232-240° C. with decomposition).

[3] = molecular target: T1, 5HT-2A receptor (Rattus norvegicus, UniProt P14842); assay: 5HT-2A radioligand binding (3H-ketanserin, rat frontal cortex); details: 3H-ketanserin 0.4 nM, pH 7.7, read-out: Radioligand Binding Results, 5HT2 (IC50)
T1 construct: rat frontal; from tissue; host or cells: rat frontal cortex
Source text: (§1) The compound of formula I is therefore useful in the treatment or prevention of psychotic disorders, such as schizophrenia. […] Specifically, the standard methods for determining neuroleptic activity are based on Dopamine D-2, Dopamine D-3, Dopamine D4, 5-hydroxytryptamine-1A (5-HT-1A), 5-hydroxytryptamine-2C (5-HT-2C), and 5-hydroxytryptamine-2A (5-HT-2A) receptor binding studies. Tissues or membranes used to perform these studies are derived from rat, pig, or from cell lines expressing human receptor subtypes. LTK-cells expressing the human D2Long receptor were obtained from Dr. Olivier Civelli, Oregon Health Sciences University, Portland, Oreg. Chinese hamster ovary cells (CHO) expressing the human D3 receptor were obtained from Dr. J. C. […]
(§2) The following protocol describes one possible method for determining activity for the compound of formula I. Specific assay conditions for each receptor is described in Table 1, below. […] Non-specific binding is determined by radioligand binding in the presence of a saturating excess of a known competitor for the receptor of interest (as listed in Table 1). […] Membrane-bound ligand is determined by liquid scintillation counting of the filters in Ready-Safe scintillation cocktail (for tritiated ligands), or by direct counting in a gamma counter (for [^125 .vertline.] ligands). […]

[4] = molecular target: T2, Dopamine D-3 receptor (Homo sapiens, UniProt P35462); assay: Dopamine D-3 radioligand binding (3H-spiroperidol, human D3-transfected CHO cells); details: 3H-spiroperidol 0.1 nM, pH 7.4, read-out: Radioligand Binding Results, D3 (apparent Ki)
T2 construct: expressed in transfected cells; host or cells: CHO cells (from Dr. J. C. Schwartz, INSERM, Paris)
Source text: as §1, §2

[5] = molecular target: T3, Dopamine D-4 receptor (Homo sapiens, UniProt P21917); assay: Dopamine D-4 radioligand binding (3H-spiroperidol, human D4-transfected COS-7 cells); details: 3H-spiroperidol 0.1 nM, pH 7.4, read-out: Radioligand Binding Results, D4 (apparent Ki)
T3 construct: expressed in transfected cells; host or cells: COS-7 cells
T3 sequence (P21917 1-419): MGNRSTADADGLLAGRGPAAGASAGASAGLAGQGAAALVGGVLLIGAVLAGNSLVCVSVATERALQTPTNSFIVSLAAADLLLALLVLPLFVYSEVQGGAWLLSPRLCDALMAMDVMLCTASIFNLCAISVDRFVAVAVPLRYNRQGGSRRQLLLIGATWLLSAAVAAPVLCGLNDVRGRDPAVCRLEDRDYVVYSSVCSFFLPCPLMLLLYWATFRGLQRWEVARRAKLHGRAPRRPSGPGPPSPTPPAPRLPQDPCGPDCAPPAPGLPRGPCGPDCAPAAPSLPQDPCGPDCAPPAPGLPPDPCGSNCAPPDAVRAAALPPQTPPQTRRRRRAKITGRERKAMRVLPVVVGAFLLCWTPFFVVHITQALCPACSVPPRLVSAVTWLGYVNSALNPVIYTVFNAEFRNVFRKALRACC
Source text: as §1, §2

[6] = molecular target: T4, 5HT-1A receptor (Rattus norvegicus, UniProt P19327); assay: 5HT-1A radioligand binding (3H-8OH-DPAT, rat cortex); details: 3H-8OH-DPAT 1.5 nM, pH 7.7, read-out: Radioligand Binding Results, 5HT1A (IC50)
T4 construct: rat cortex; from tissue; host or cells: rat cortex
T4 sequence (P19327 1-422): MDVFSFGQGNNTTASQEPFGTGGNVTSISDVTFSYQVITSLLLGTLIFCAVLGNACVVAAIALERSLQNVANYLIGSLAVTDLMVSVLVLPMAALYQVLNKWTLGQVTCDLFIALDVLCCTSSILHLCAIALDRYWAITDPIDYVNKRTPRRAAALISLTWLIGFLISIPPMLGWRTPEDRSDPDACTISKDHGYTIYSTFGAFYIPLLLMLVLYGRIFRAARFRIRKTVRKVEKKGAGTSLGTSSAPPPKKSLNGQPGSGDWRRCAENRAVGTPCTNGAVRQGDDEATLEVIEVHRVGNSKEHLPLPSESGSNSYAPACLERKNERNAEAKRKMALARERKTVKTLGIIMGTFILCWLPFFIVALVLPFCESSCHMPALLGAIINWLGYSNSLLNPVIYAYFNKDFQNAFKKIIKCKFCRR
Source text: as §1, §2

T2 sequence (P35462 whole entry): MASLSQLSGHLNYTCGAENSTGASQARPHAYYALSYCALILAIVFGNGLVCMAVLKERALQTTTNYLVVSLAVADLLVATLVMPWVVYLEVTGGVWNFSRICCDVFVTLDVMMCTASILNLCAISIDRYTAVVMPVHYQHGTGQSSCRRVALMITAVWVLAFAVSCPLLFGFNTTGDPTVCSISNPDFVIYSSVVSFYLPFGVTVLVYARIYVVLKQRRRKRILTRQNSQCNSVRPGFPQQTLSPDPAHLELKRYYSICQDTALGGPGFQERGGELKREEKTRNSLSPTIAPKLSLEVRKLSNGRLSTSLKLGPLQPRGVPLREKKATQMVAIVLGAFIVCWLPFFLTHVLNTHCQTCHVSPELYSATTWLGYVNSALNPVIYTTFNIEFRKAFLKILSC
T1 sequence (P14842 whole entry): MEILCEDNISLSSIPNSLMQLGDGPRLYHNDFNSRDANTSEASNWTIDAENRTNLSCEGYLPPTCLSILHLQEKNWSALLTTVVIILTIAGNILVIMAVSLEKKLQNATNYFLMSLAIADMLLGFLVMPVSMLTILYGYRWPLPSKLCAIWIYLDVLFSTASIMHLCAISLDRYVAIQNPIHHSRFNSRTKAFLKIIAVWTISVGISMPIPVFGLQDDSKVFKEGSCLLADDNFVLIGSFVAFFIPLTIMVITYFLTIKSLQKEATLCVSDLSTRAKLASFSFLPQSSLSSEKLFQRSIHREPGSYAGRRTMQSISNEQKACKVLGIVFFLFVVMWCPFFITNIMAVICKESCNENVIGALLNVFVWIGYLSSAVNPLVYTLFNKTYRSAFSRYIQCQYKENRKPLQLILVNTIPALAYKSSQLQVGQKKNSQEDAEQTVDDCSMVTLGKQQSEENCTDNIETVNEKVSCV

| SMILES | aqueous solubility relative to ziprasidone hydrochloride (times higher) [1] | solubility ([1]; water) [mg/mL] | pKa ([2]; first equivalence point pH 4.33, read-out: pKa (first)) | pKa ([2]; second equivalence point pH 8.22, read-out: pKa (second)) | IC50 [3] [nM] | Ki [4] [nM] | Ki [5] [nM] | IC50 [6] [nM] |
| --- | --- | --- | --- | --- | --- | --- | --- | --- |
| N=C(c1ccccc1S)N1CCN(CCc2cc3c(cc2Cl)NC(=O)C3)CC1 [Example 2, 1-[2-(6-Chloro-2.3-dihydro-2-oxo-1H-indol-5-yl)ethyl]-4-[(imino(2-mercaptophenyl)methyl]piperazinedihydrochloride] | approximately 300 times | ~25 | 3.1 | 5.5 | – | – | – | – |
| N=C(c1ccccc1S)N1CCN(CCc2cc3c(cc2Cl)NC(=O)C3)CC1 [Example 1, 1-[2-(6-chloro-2,3-dihydro-2-oxo-1H-indol-5-yl)ethyl]-4-[imino(2-mercaptophenyl)methyl]piperazine] | – | – | – | – | 0.35 | 5.8 | 59.2 | 12 |
